{"source": "patent US20200206350A1", "about": "“COMPOUNDS FOR REDUCING THE VISCOSITY OF BIOLOGICAL FORMULATIONS” (Merck Sharp & Dohme Corp., priority 2017, published 2020)", "note": "Counter-ions that a name gives are not always drawn. Marks after values point to notes of the source that are not given here.", "data": [{"tested_on": "pembrolizumab", "experiment": "Viscosity of pembrolizumab test formulations (mVROC viscometer)", "type": "physicochemical", "conditions": "10 mM histidine buffer, 200 mg/mL pembrolizumab, 0.2 M excipient, pH 5.5", "method": "Pembrolizumab formulations comprised the following: 10 mM histidine buffer, pembrolizumab at a concentration of 200 mg/mL, and the test excipient (pegylated excipient of the invention, as described herein) at a concentration of 200 mM, pH adjusted to pH 5.5. Pembrolizumab formulations without excipients consisted of 200 mg/mL pembrolizumab in 10 mM histidine buffer at pH 5.5. The 10 mM histidine buffer used with pembrolizumab formulations consisted of consists of 10 mM L-histidine in sterile water, pH adjusted to 5.5.\n(§1) All viscosity measurements were conducted using the mVROC (Viscometer/Rheometer-On-A-Chip, RheoSense, Inc., San Ramon, Calif.). The test formulations were placed into a 250 μl Hamilton air-tight syringe, which was then placed inside the syringe jacket of the mVROC. The instrument injected formulation into the chip for viscosity measurement at an appropriate flow rate. Most measurements were done in duplicates.", "values": [{"smiles": "N=C(N)NCCC[C@H](N)C(=O)O", "note": "[Arginine, reference compound]", "Viscosity 1": "30.25 mPa-s", "Viscosity 2": "30.55 mPa-s", "Viscosity Average": "30.40 mPa-s"}, {"smiles": "COCCOCCOCC(=O)N[C@@H](Cc1c[nH]cn1)C(=O)O", "note": "[Example 1, (S)-12-((1H-imidazol-4-yl)methyl)-10-oxo-2,5,8-trioxa-11-azatridecan-13-oic acid]", "Viscosity 1": "23.12 mPa-s", "Viscosity 2": "23.27 mPa-s", "Viscosity Average": "23.20 mPa-s"}, {"smiles": "COCCOCCOCC(=O)N[C@@H](CCCNC(=N)N)C(=O)O", "note": "[Example 2, (S)-12-(3-guanidinopropyl)-10-oxo-2,5,8-trioxa-11-azatridecan-13-oic acid]", "Viscosity 1": "22.05 mPa-s", "Viscosity 2": "22.24 mPa-s", "Viscosity Average": "22.15 mPa-s"}, {"smiles": "COCCOCCN(C(=O)COCCOC)[C@@H](CCCNC(=N)N)C(=O)O", "note": "[Example 3, (S)-5-guanidino-2-(2-(2-methoxyethoxy)-N-(2-(2-methoxyethoxy)ethyl)acetamido)pentanoic acid]", "Viscosity 1": "21.12 mPa-s", "Viscosity 2": "21.18 mPa-s", "Viscosity Average": "21.15 mPa-s"}, {"smiles": "COCCOCCN(C(=O)COCCOC)[C@@H](Cc1c[nH]cn1)C(=O)O", "note": "[Example 4, (S)-3-(1H-imidazol-4-yl)-2-(2-(2-methoxyethoxy)-N-(2-(2-methoxyethoxy)ethyl)acetamido)propanoic acid]", "Viscosity 1": "19.64 mPa-s", "Viscosity 2": "19.28 mPa-s", "Viscosity Average": "19.46 mPa-s"}, {"smiles": "COCCOCCN(CCOCCOC)[C@@H](CCCNC(=N)N)C(=O)O", "note": "[Example 5, (S)-2-(bis(2-(2-methoxyethoxy)ethyl)amino)-5-guanidinopentanoic acid]", "Viscosity 1": "18.02* *Ave- rage of 4 values mPa-s", "Viscosity 2": "18.37* *Ave- rage of 4 values mPa-s", "Viscosity Average": "18.19** **Ave- rage of 8 values mPa-s"}, {"smiles": "COCCOCCN(CCOCCOC)[C@@H](Cc1c[nH]cn1)C(=O)O", "note": "[Example 6, (S)-2-(bis(2-(2-methoxyethoxy)ethyl)amino)-3-(1H-imidazol-4-yl)propanoic acid]", "Viscosity 1": "17.57* *Ave- rage of 3 values mPa-s", "Viscosity 2": "18.10* *Ave- rage of 3 values mPa-s", "Viscosity Average": "17.83** **Ave- rage of 6 values mPa-s"}, {"smiles": "COCCOCC(=O)N[C@@H](CCCCN)C(=O)O", "note": "[Example 10, (S)-6-amino-2-(2-(2-methoxyethoxy)acetamido)hexanoic acid]", "Viscosity 1": "26.39 mPa-s", "Viscosity 2": "26.35 mPa-s", "Viscosity Average": "26.37 mPa-s"}, {"smiles": "COCCOCCN(CCOCCOC)[C@@H](CCCCN)C(=O)O", "note": "[Example 11, (S)-6-amino-2-(bis(2-(2-methoxyethoxy)ethyl)amino)hexanoic acid]", "Viscosity 1": "21.36 mPa-s", "Viscosity 2": "21.50 mPa-s", "Viscosity Average": "21.43 mPa-s"}, {"smiles": "COCCOCCN[C@@H](Cc1c[nH]cn1)C(=O)O", "note": "[Example 12, (S)-3-(1H-imidazol-4-yl)-2-((2-(2-methoxyethoxy)ethyl)amino)propanoic acid]", "Viscosity 1": "22.19 mPa-s", "Viscosity 2": "22.33 mPa-s", "Viscosity Average": "22.26 mPa-s"}, {"smiles": "COCCOCC(=O)N[C@@H](Cc1c[nH]cn1)C(=O)O", "note": "[Example 13, (2-(2-methoxyethoxy)acetyl)-L-histidine]", "Viscosity 1": "20.05 mPa-s", "Viscosity 2": "20.09 mPa-s", "Viscosity Average": "20.07 mPa-s"}, {"smiles": "COCCOCCN[C@@H](CCCNC(=N)N)C(=O)O", "note": "[Example 14, (S)-5-guanidino-2-((2-(2-methoxyethoxy)ethyl)amino)pentanoic acid]", "Viscosity 1": "24.59 mPa-s", "Viscosity 2": "24.76 mPa-s", "Viscosity Average": "24.68 mPa-s"}, {"smiles": "COCCOCC(=O)N[C@@H](CCCNC(=N)N)C(=O)O", "note": "[Example 15, (2-(2-methoxyethoxy)acetyl)-L-arginine dihydrochloride]", "Viscosity 1": "18.67 mPa-s", "Viscosity Average": "18.67 mPa-s"}, {"smiles": "COCCOCCOCCOCC(=O)N[C@@H](Cc1c[nH]cn1)C(=O)O", "note": "[Example 16]", "Viscosity 1": "23.33 mPa-s", "Viscosity 2": "23.54 mPa-s", "Viscosity Average": "23.44 mPa-s"}, {"smiles": "COCCOCCOCCOCC(=O)N[C@@H](CCCNC(=N)N)C(=O)O", "note": "[Example 17, (2,5,8,11-tetraoxatridecan-13-oyl)-L-arginine]", "Viscosity 1": "23.09 mPa-s", "Viscosity 2": "22.82 mPa-s", "Viscosity Average": "22.96 mPa-s"}, {"smiles": "COCCOCCOCCOCCN[C@@H](Cc1c[nH]cn1)C(=O)O", "note": "[Example 18, (2,5,8,11-tetraoxatridecan-13-yl)-L-histidine]", "Viscosity 1": "22.82 mPa-s", "Viscosity 2": "22.47 mPa-s", "Viscosity Average": "22.65 mPa-s"}, {"smiles": "COCCOCCOCCN[C@@H](Cc1c[nH]cn1)C(=O)O", "note": "[Example 19, (2-(2-(2-methoxyethoxy)ethoxy)ethyl)-L-histidine]", "Viscosity 1": "26.58 mPa-s", "Viscosity 2": "26.83 mPa-s", "Viscosity Average": "26.71 mPa-s"}, {"smiles": "N=C(N)NCCC[C@@H](C(=O)O)N(CCOCCO)CCOCCO", "note": "[Example 20, (S)-2-(bis(2-(2-hydroxyethoxy)ethyl)amino)-5-guanidinopentanoic acid]", "Viscosity 1": "25.28 mPa-s", "Viscosity 2": "25.42 mPa-s", "Viscosity Average": "25.35 mPa-s"}, {"smiles": "O=C(O)[C@H](Cc1c[nH]cn1)N(CCOCCO)CCOCCO", "note": "[Example 21, (S)-2-(bis(2-(2-hydroxyethoxy)ethyl)amino)-3-(1H-imidazol-4-yl)propanoic acid]", "Viscosity 1": "23.19 mPa-s", "Viscosity 2": "23.16 mPa-s", "Viscosity Average": "23.18 mPa-s"}, {"smiles": "COCCOCC(=O)N[C@@H](Cc1ccccc1)C(=O)O", "note": "[Example 22]", "Viscosity 1": "17.77 mPa-s", "Viscosity 2": "17.63 mPa-s", "Viscosity Average": "17.70 mPa-s"}, {"smiles": "COCCOCC(=O)N[C@@H](Cc1ccc(O)cc1)C(=O)O", "note": "[Example 23, (2-(2-methoxyethoxy)acetyl)-L-tyrosine]", "Viscosity 1": "20.15 mPa-s", "Viscosity 2": "20.09 mPa-s", "Viscosity Average": "20.12 mPa-s"}, {"smiles": "N[C@@H](Cc1c[nH]cn1)C(=O)O", "note": "[Histidine, reference compound]", "Viscosity 1": "35.79 mPa-s", "Viscosity 2": "35.32 mPa-s", "Viscosity Average": "35.56 mPa-s"}]}, {"tested_on": "Antibody B", "experiment": "Viscosity of Antibody B test formulations (mVROC viscometer)", "type": "physicochemical", "conditions": "10 mM histidine buffer, 177 mg/mL Antibody B, 0.2 M excipient, pH 6.0", "method": "Antibody B formulations comprised the following: 10 mM histidine buffer, Antibody B at a concentration of 177 mg/mL and the test excipient (pegylated excipient of the invention, as described herein) at a concentration of 200 mM, pH adjusted to pH 6.0. The Antibody B formulation without excipients consisted of 177 mg/mL Antibody B in 10 mM histidine buffer at pH 6.0. The 10 mM histidine buffer used with Antibody B consisted of 10 mM L-histidine in sterile water, pH adjusted to 6.0.\nas §1", "units": {"Viscosity 1": "mPa-s", "Viscosity 2": "mPa-s", "Viscosity Average": "mPa-s"}, "values": [{"smiles": "COCCOCCN(CCOCCOC)[C@@H](CCCNC(=N)N)C(=O)O", "note": "[Example 8, (S)-2-(bis(2-(2-methoxyethoxy)ethyl)amino)-5-guanidinopentanoic acid dihydrochloride]", "Viscosity 1": 22.25, "Viscosity 2": 22.19, "Viscosity Average": 22.22}, {"smiles": "COCCOCCN(CCOCCOC)[C@@H](Cc1c[nH]cn1)C(=O)O", "note": "[Example 9, (S)-2-(bis(2-(2-methoxyethoxy)ethyl)amino)-3-(1H-imidazol-4-yl)propanoic acid dihydrochloride]", "Viscosity 1": 26.55, "Viscosity 2": 26.67, "Viscosity Average": 26.61}]}]}
